US20220401951A1, “RAPID CELL CULTURE TEST DEVICE INCLUDING ISLAND STRUCTURES” (QuantaMatrix Inc., priority 2020, published 2022)

Test system: P. aeruginosa ATCC 27853
Experiment: antibiotic susceptibility test in the cell culture test device (solid thin film, microscopic observation)
Format: cell-based
Details: device of Example 1
Experimental: Colistin as an antibiotic was loaded into the island structure through the third inlet portion of each of the well units. The antibiotic was loaded in an amount of 10 μl, dried, and fixed in the shape illustrated in (b) of FIG. 5.
Thereafter, 10 μl of a mixture of agarose and a bacterial solution (P. aeruginosa ATCC 27853) as a first fluid was dispensed into the first accommodation space through the first inlet portion. After the introduction of the first fluid into the first accommodation space was completed, 100 μl of a culture medium as a second fluid was introduced into the second accommodation space through the second inlet portion.
In each of Examples 1-8 and Comparative Examples 1-4, 10 cell culture test devices having the same structure were manufactured. A determination was made as to whether the solid thin films of the first fluid were defective. The susceptibilities to the antibiotic at four selected points of each first accommodation space were evaluated. The four points (a, b, c, and d) were at right angles to the first inlet portion. […] The solid thin film in the first accommodation space was visually observed to determine whether the solid thin film was defective.
Particularly, the effect of the antibiotic was pronounced at ≥1 mg/ml.

Colistin
response of bacteria in solid thin film to colistin (after 6 h, 0 to 2 mg/ml colistin (FIG. 10)): Clear responses were observed
colistin concentration at which the effect of the antibiotic was pronounced (observation after 6 h, concentrations tested 0, 0.12, 0.25, 0.5, 1, 2 mg/ml (FIG. 10)): ≥ 1 mg/mL
